# Laboratory results taken from US20030036532A1, “Use of 2-phenylene diamine derivatives for the treatment of infections” (priority 2000, published 2003).
# Tested on: Plasmodium falciparum
# Assay: antimalarial activity in in vitro cultures of Plasmodium falciparum, inhibition of [3H]-hypoxanthine incorporation
# Assay type: cell-based
# Conditions: inhibition of tritium incorporation relative to comparison without substance, 48 h + 24 h incubation; for inhibition at 10 µM / inhibition at 100 µM: Plasmodium falciparum; for inhibition at 10 µM / % Inhibition at 10 μM: 10 μM compound; for inhibition at 100 µM / % Inhibition at 100 μM: 100 μM compound; for % Inhibition at 1 μM: 1 μM compound
# Protocol: To determine the anti-malaria activity, for example, the inhibition of the growth of malaria parasites in blood cultures is determined. […] The plates are incubated at 37° C., 3% CO2 and 5% O2 over a period of 48 hours. 30 μl of medium supplemented with 27 μCi ml^−1 [^3H]-hypoxanthine were then added to each well. After 24 hours' incubation, the parasites were harvested by filtration through glass fiber filters and the incorporated radioactivity was measured. Inhibition of parasite growth was measured as the percentage inhibition of tritium incorporation relative to a comparison without substance. The table states the percentage inhibition in dependence of the concentrations.
Compound,inhibition at 10 µM,inhibition at 100 µM,% Inhibition at 10 μM,% Inhibition at 100 μM,% Inhibition at 1 μM
"CCCCCCCCCCCCCCCCCCCC(=O)Nc1ccc(NC(=O)Cc2ccc(C)cc2)c(C(=O)c2ccccc2)c1 [compound 10, N-[3-benzoyl-4-[[2-(4-methylphenyl)acetyl]amino]phenyl]eicosanoic Acid Amide]",0%,99%,–,–,–
"CCCCCCCCCCCCCCCC(=O)NCCC(=O)Nc1ccc(NC(=O)Cc2ccccc2)c(C(=O)c2ccccc2)c1 [compound 11, N-[3-[3-benzoyl-4-[(2-phenylacetyl)amino]phenylamino]-3-oxopropyl]-hexadecanoic Acid Amide]",0%,98%,–,–,–
"Cc1ccc(CC(=O)Nc2ccc(NC(=O)CNC(=O)C=Cc3ccc(-c4ccccc4)cc3)cc2C(=O)c2ccccc2)cc1 [compound 12, N-[2-[3-benzoyl-4-[[2-(4-methylphenyl)acetyl]amino]phenylamino]-2-oxo-ethyl]-4-phenylcinnamic Acid Amide]",67%,89%,–,–,–
"O=C(C=Cc1ccc(OCc2ccccc2)cc1)NCCC(=O)Nc1ccc(NC(=O)Cc2ccccc2)c(C(=O)c2ccccc2)c1 [compound 13, N-[3-[3-benzoyl-4-[(2-phenylacetyl)amino]phenylamino]-3-oxopropyl]-4-benzyl-oxycinnamic Acid Amide]",97%,95%,–,–,–
"Cc1ccc(CC(=O)Nc2ccc(NC(=O)c3cccnc3)cc2C(=O)c2ccccc2)cc1 [compound 14, N-[3-benzoyl-4-[2-(4-methylphenyl)acetyl]amino]phenylnicotinic Acid Amide]",–,–,0%,34%,–
Cc1ccc(CC(=O)Nc2ccc(NC(=O)c3ccccc3)cc2C(=O)c2ccccc2)cc1 [compound 15],–,–,77%,96%,0%
Cc1ccc(CC(=O)Nc2ccc(NC(=O)Cc3ccccc3)cc2C(=O)c2ccccc2)cc1 [compound 16],–,–,0%,94%,0%
Cc1ccc(CC(=O)Nc2ccc(NC(=O)CCc3ccccc3)cc2C(=O)c2ccccc2)cc1 [compound 17],–,–,91%,94%,0%
Cc1ccc(CC(=O)Nc2ccc(NC(=O)CCC3CCCCC3)cc2C(=O)c2ccccc2)cc1 [compound 18],–,–,98%,98%,9%
Cc1ccc(CC(=O)Nc2ccc(NC(=O)CCCc3ccccc3)cc2C(=O)c2ccccc2)cc1 [compound 19],–,–,95%,97%,0%
Cc1ccc(CC(=O)Nc2ccc(NC(=O)CCCCc3ccccc3)cc2C(=O)c2ccccc2)cc1 [compound 20],–,–,94%,97%,0%
Cc1ccc(CC(=O)Nc2ccc(NC(=O)C=Cc3ccccc3)cc2C(=O)c2ccccc2)cc1 [compound 21],–,–,95%,94%,0%
Cc1ccc(CC(=O)Nc2ccc(NC(=O)C=Cc3ccc([N+](=O)[O-])cc3)cc2C(=O)c2ccccc2)cc1 [compound 22],–,–,82%,88%,0%
"Cc1ccc(CC(=O)Nc2ccc(NC(=O)C=Cc3ccc(-c4ccccc4)cc3)cc2C(=O)c2ccccc2)cc1 [compound 23, N-[3-[3-benzoyl-4-[2-(4-methylphenyl)acetyl]amino]phenylamino]-4-phenyl-cinnamic Acid Amide]",–,–,94%,94%,82%
Cc1ccc(CC(=O)Nc2ccc(NC(=O)C=Cc3ccc(OCc4ccccc4)cc3)cc2C(=O)c2ccccc2)cc1 [compound 24],–,–,96%,97%,85%
Cc1ccc(CC(=O)Nc2ccc(NC(=O)c3cccc4ccccc34)cc2C(=O)c2ccccc2)cc1 [compound 26],–,–,65%,93%,0%

Compound,inhibition at 10 µM,inhibition at 100 µM,% Inhibition at 10 μM,% Inhibition at 100 μM,% Inhibition at 1 μM
Cc1ccc(CC(=O)Nc2ccc(NC(=O)C3c4ccccc4-c4ccccc43)cc2C(=O)c2ccccc2)cc1 [compound 28],–,–,0%,98%,0%
Cc1ccc(CC(=O)Nc2ccc(-c3ccccc3CNC(=O)CS)cc2C(=O)c2ccccc2)cc1 [compound 29],–,–,91%,97%,0%
Cc1ccc(CC(=O)Nc2ccc(NC(=O)COCc3ccccc3)cc2C(=O)c2ccccc2)cc1 [compound 30],–,–,93%,97%,0%
Cc1ccc(CC(=O)Nc2ccc(NC(=O)CSCc3ccc([N+](=O)[O-])cc3)cc2C(=O)c2ccccc2)cc1 [compound 32],–,–,0%,96%,0%
"COC(=O)CC(=O)Nc1ccc(NC(=O)C(C)c2ccccc2)c(C(=O)c2ccccc2)c1 (stereo not shown) [example 1, 2-[N-[3-[3-benzoyl-4-(2-phenylpropionyl)amino]phenylamino]carbamoyl]acetic Acid Methylester]",–,–,19%,89%,–
COC(=O)CC(=O)Nc1ccc(NC(=O)Cc2ccc(C)cc2)c(C(=O)c2ccccc2)c1 [example 2],–,–,19%,95%,–
Cc1ccc(CC(=O)Nc2ccc(NC(=O)CCC(=O)O)cc2C(=O)c2ccccc2)cc1 [example 3],–,–,0%,38%,–
COC(=O)CCC(=O)Nc1ccc(NC(=O)Cc2ccc(C)cc2)c(C(=O)c2ccccc2)c1 [example 4],–,–,0%,29%,–
Cc1ccc(CC(=O)Nc2ccc(NC(=O)CCCC(=O)O)cc2C(=O)c2ccccc2)cc1 [example 5],–,–,0%,59%,–
COC(=O)CCCC(=O)Nc1ccc(NC(=O)Cc2ccc(C)cc2)c(C(=O)c2ccccc2)c1 [example 6],–,–,0%,98%,–
"CCCCCCCCCCCCCCCCC(=O)NCC(=O)Nc1ccc(NC(=O)Cc2ccc(C)cc2)c(C(=O)c2ccccc2)c1 [example 7, N-[2-[3-benzoyl-4-[[2-(4-methylphenyl)acetyl]amino]phenylamino]-2-oxoethyl]-heptadecanoic Acid Amide]",0%,83%,–,–,–
"CCCCCCCCCCCCCCC(=O)NCCCC(=O)Nc1ccc(NC(=O)Cc2ccc(C)cc2)c(C(=O)c2ccccc2)c1 [example 8, N-[4-[3-benzoyl-4-[[2-(4-methylphenyl)acetyl]amino]phenylamino]-4-oxobutyl]-pentadecanoic Acid Amide]",0%,93%,–,–,–
CCCCCCCCCCCCCCNC(=O)CCCC(=O)Nc1ccc(NC(=O)Cc2ccc(C)cc2)c(C(=O)c2ccccc2)c1 [example 9],–,–,0%,96%,–
N-[2-[3-benzoyl-4-[[2-(4-methylphenyl)acetyl]amino]phenylamino]-2-oxo-ethyl]-4-benzoic Acid Amide [compound 25],–,–,0%,86%,0%
N-[3-benzoyl-4-[2-(4-methylphenyl)acetyl]amino]phenyl]-4-(4-nitrophenyl)butyric Acid Amide [compound 31],–,–,93%,96%,0%
